Target: rNOX (NADH oxidase, NOX) (Mesomycoplasma hyopneumoniae, UniProt E4QS87)
Assay: NADH oxidation, absorbance at […] nm
Format: biochemical
Conditions: 0.5 mM NADH; 10 uM FAD added; 0.1 M potassium phosphate pH 7.5, 1 mM dithiothreitol; 25 °C; 5 ug/mL enzyme

Sequence of rNOX (NADH oxidase, NOX) (E4QS87 entry or part of it): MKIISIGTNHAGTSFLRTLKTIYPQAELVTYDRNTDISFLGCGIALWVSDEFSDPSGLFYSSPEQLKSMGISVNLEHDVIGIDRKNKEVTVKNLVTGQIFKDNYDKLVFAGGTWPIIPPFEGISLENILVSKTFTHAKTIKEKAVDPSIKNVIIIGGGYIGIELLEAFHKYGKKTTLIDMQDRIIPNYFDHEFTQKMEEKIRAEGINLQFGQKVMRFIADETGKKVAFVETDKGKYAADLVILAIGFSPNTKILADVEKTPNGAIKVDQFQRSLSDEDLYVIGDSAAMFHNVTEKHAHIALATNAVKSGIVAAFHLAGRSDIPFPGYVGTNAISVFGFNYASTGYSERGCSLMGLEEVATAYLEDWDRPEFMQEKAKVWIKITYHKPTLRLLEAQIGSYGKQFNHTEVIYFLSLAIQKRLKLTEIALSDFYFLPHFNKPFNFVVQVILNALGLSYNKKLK

SMILES: NC(=O)C1=CN([C@@H]2O[C@H](COP(=O)(O)OP(=O)(O)OC[C@H]3O[C@@H](n4cnc5c(N)ncnc54)[C@H](O)[C@@H]3O)[C@@H](O)[C@H]2O)C=CC1 [NADH]
- NADH oxidation, absorbance at 340 nm: enzymatic activity of purified rNOX was determined by measuring the oxidation of NADH to NAD^+

Reference: PMC8976378, “NADH oxidase of Mycoplasma hyopneumoniae functions as a potential mediator of virulence” (BMC Veterinary Research, 2022)
